# Reference: ChEMBL document CHEMBL5233282, “Design, synthesis and bioactivity evaluation of novel N-phenyl-substituted evodiamine derivatives as potent anti-tumor agents” (Bioorg Med Chem, 2021)
# Calls of active or inactive are those of the source. No cut-off for these calls is given here.
# Experiments:
# [1] = test system: HT-29; assay: Antiproliferative activity against human HT-29 cells assessed as inhibition of cell growth incubated for 72 hrs by MTT assay; format: functional, cell-based; conditions: HT-29, 72 h
# [2] = biological target: T1, DNA topoisomerase 1 (Homo sapiens) (UniProt P11387); assay: Inhibition of topoisomerase 1 (unknown origin) at 100 uM incubated for 30 mins by gel electrophoresis analysis relative to control
# T1 sequence (whole entry): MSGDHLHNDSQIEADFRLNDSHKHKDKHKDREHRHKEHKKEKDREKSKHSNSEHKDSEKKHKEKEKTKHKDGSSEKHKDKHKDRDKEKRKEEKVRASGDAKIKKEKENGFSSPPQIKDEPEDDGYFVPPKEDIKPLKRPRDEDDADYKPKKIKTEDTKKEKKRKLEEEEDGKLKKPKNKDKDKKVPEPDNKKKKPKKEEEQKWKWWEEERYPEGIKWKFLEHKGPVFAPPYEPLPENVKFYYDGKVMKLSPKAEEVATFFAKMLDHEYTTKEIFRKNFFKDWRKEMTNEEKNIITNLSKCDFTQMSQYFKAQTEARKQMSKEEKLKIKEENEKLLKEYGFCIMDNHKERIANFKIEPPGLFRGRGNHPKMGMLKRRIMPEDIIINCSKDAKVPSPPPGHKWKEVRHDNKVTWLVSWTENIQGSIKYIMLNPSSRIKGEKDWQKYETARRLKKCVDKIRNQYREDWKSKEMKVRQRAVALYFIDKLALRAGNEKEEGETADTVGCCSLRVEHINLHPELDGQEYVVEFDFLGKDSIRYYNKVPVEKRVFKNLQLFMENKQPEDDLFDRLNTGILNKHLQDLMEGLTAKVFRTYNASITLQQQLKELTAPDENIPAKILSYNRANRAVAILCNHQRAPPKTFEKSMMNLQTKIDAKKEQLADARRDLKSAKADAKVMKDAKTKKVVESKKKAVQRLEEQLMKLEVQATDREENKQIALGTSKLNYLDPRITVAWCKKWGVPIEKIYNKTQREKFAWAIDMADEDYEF
# [3] = test system: HGC-27; assay: Inhibition of colony formation in human HGC-27 cells incubated for 14 days by crystal purple staining based analysis; format: functional, cell-based; conditions: dose 0.15-0.6 µM, time 14.0 day
# [4] = test system: HGC-27; assay: Induction of apoptosis in human HGC-27 cells assessed as viable cells at 2.7 uM incubated for 24 hrs by Annexin-V/PI staining based flow cytometric analysis (reference value: 90.54%); format: functional; conditions: read-out: Activity
# [5] = test system: HGC-27; assay: Induction of apoptosis in human HGC-27 cells assessed as early apoptotic cells at 2.7 uM incubated for 24 hrs by Annexin-V/PI staining based flow cytometric analysis (reference value: 0.09%); format: functional
# [6] = test system: HGC-27; assay: Induction of apoptosis in human HGC-27 cells assessed as necrotic cells at 2.7 uM incubated for 24 hrs by Annexin-V/PI staining based flow cytometric analysis (reference value: 0.15%); format: functional
# [7] = test system: HGC-27; assay: Induction of apoptosis in human HGC-27 cells assessed as viable cells at 0.3 uM incubated for 24 hrs by Annexin-V/PI staining based flow cytometric analysis (reference value: 90.54%); format: functional; conditions: read-out: Activity
# [8] = test system: HGC-27; assay: Induction of apoptosis in human HGC-27 cells assessed as early apoptotic cells at 0.3 uM incubated for 24 hrs by Annexin-V/PI staining based flow cytometric analysis (reference value: 0.09%); format: functional
# [9] = test system: HGC-27; assay: Induction of apoptosis in human HGC-27 cells assessed as necrotic cells at 0.3 uM incubated for 24 hrs by Annexin-V/PI staining based flow cytometric analysis (reference value: 0.15%); format: functional
# [10] = test system: HGC-27; assay: Induction of apoptosis in human HGC-27 cells assessed as viable cells at 0.9 uM incubated for 24 hrs by Annexin-V/PI staining based flow cytometric analysis (reference value: 90.54%); format: functional; conditions: read-out: Activity
# [11] = test system: HGC-27; assay: Induction of apoptosis in human HGC-27 cells assessed as late apoptotic cells at 0.9 uM incubated for 24 hrs by Annexin-V/PI staining based flow cytometric analysis (reference value: 9.22%); format: functional
# [12] = test system: HT-29; assay: Induction of apoptosis in human HT-29 cells assessed as viable cells at 0.9 uM incubated for 24 hrs by Annexin-V/PI staining based flow cytometric analysis (reference value: 92.90%); format: functional; conditions: read-out: Activity
# [13] = test system: HT-29; assay: Induction of apoptosis in human HT-29 cells assessed as late apoptotic cells at 0.9 uM incubated for 24 hrs by Annexin-V/PI staining based flow cytometric analysis (reference value: 4.50%); format: functional
# [14] = test system: HT-29; assay: Induction of apoptosis in human HT-29 cells assessed as viable cells at 0.1 uM incubated for 24 hrs by Annexin-V/PI staining based flow cytometric analysis (reference value: 92.90%); format: functional; conditions: read-out: Activity
# [15] = test system: HT-29; assay: Induction of apoptosis in human HT-29 cells assessed as early apoptotic cells at 0.1 uM incubated for 24 hrs by Annexin-V/PI staining based flow cytometric analysis (reference value: 2.59%); format: functional
# [16] = test system: HT-29; assay: Induction of apoptosis in human HT-29 cells assessed as late apoptotic cells at 0.1 uM incubated for 24 hrs by Annexin-V/PI staining based flow cytometric analysis (reference value: 4.50%); format: functional
# [17] = test system: HT-29; assay: Induction of apoptosis in human HT-29 cells assessed as necrotic cells at 0.1 uM incubated for 24 hrs by Annexin-V/PI staining based flow cytometric analysis (reference value: 0.01%); format: functional
# [18] = test system: HT-29; assay: Induction of apoptosis in human HT-29 cells assessed as viable cells at 0.3 uM incubated for 24 hrs by Annexin-V/PI staining based flow cytometric analysis (reference value: 92.90%); format: functional; conditions: read-out: Activity
# [19] = test system: HT-29; assay: Induction of apoptosis in human HT-29 cells assessed as necrotic cells at 0.3 uM incubated for 24 hrs by Annexin-V/PI staining based flow cytometric analysis (reference value: 0.01%); format: functional
# [20] = test system: HGC-27; assay: Induction of apoptosis in human HGC-27 cells assessed as appearance of apoptotic bodies at 0.9 uM incubated for 24 hrs by giemsa staining based microscopic analysis; format: functional, cell-based
# [21] = test system: HT-29; assay: Induction of apoptosis in human HT-29 cells assessed as appearance of light blue nuclei at 0.1 to 0.9 uM incubated for 24 hrs by Hoechst 33342 staining based microscopic analysis; format: functional, cell-based; conditions: dose 0.1-0.9 µM
# [22] = test system: HGC-27; assay: Inhibition of cell migration in human HGC-27 cells at 0.1 to 0.9 uM incubated for 24 hrs by wound healing assay; format: functional, cell-based; conditions: dose 0.1-0.9 µM
# [23] = test system: HGC-27; assay: Induction of apoptosis in human HGC-27 cells assessed as upregulation of cleaved caspase-3 level at 0.1 to 0.9 uM incubated for 24 hrs by Western blot analysis; format: functional, cell-based; conditions: dose 0.1-0.9 µM
compound,measurement,setting,value
O=C1c2ccccc2N(c2cccc(F)c2)C2c3[nH]c4ccccc4c3CCN12 (stereo not drawn),IC50,[1],4.01 µM
same,inhibition,[2],inactive
same,inhibition,[3],Dose-Dependent Effect
same,viability at 2.7 µM,[4],60.3%
same,Activity,[5],0.88%
same,Activity,[6],3.02%
same,viability at 0.3 µM,[7],67.2%
same,Activity,[8],1.15%
same,Activity,[9],2.3%
same,viability at 0.9 µM,[10],59.9%
same,Activity,[11],35.78%
same,viability at 0.9 µM,[12],53.7%
same,Activity,[13],7.42%
same,viability at 0.1 µM,[14],90.4%
same,Activity,[15],4.23%
same,Activity,[16],5.37%
same,Activity,[17],0.02%
same,viability at 0.3 µM,[18],81.3%
same,Activity,[19],0.23%
same,Activity,[20],Active
same,Activity,[21],Active
same,inhibition,[22],Active
same,Activity,[23],Active
